From publication PMC10892120, “Design, Synthesis and Biological Assessment of N′-(2-Oxoindolin-3-ylidene)-6-methylimidazo[2,1-b]thiazole-5-carbohydrazides as Potential Anti-Proliferative Agents toward MCF-7 Breast Cancer” (Pharmaceuticals, 2024)

How the values were obtained:
Assay type in all cases: cell-based
Caspase-9 = assay: RT-PCR gene expression in treated MCF-7 cells: caspase 9; conditions: treated MCF-7 cells vs untreated control MCF-7 (=1)
Experimental: (§1) The gene expression levels of apoptosis genes in MCF-7 cells were measured using RT-PCR to validate the apoptosis-inducing behaviors of the potent lead compound 6i in MCF-7 cells.
(§2) The gene expression levels of apoptosis genes were evaluated in MCF-7 cells using the following approaches in the Supplementary Data, page 43.
(§3) Inhibitor solution of each well labeled as “Test Inhibitor”. For the “Positive Control" and “Blank”, add 5 μl of the same solution without inhibitor (Inhibitor buffer). Prepare 3 ml of 1x Kinase Buffer 1 by mixing 600 μl of 5x Kinase Buffer 1 with 2400 μl water. 3 ml of 1x Kinase Buffer 1 is sufficient for 100 reactions. To the wells designated as "Blank", add 20 μl of 1x Kinase Buffer 1.
(§4) Thaw VEGFR2 enzyme on ice. Upon first thaw, briefly spin tube containing enzyme to recover full content of the tube. Calculate the amount of VEGFR2 required for the assay and dilute enzyme to 1 ng/μl with 1x Kinase Buffer 1. Store remaining undiluted enzyme in aliquots at -80°C. Note:
(§5) VEGFR2 enzyme is sensitive to freeze/thaw cycles. Avoid multiple freeze/thaw cycles. […]
(§6) use thawed aliquots or diluted enzyme. […]
(§7) thoroughly, and then centrifuge at 4°C to collect contents to the bottom of the tube. […] Preparation of a reaction cocktail is crucial in quantitative PCR applications to reduce pipetting errors and maximize assay precision and accuracy. […]

Bcl-2 = assay: RT-PCR gene expression in treated MCF-7 cells: Bcl-2; conditions: treated MCF-7 cells vs untreated control MCF-7 (=1)
Experimental: as §1, §2, §3, §4, §5, §6, §7

MCF-7 = assay: Cell cycle analysis (propidium iodide flow cytometry) in MCF-7; conditions: MCF-7 cell cycle distribution
Experimental: Compound 6i arrested cells in the G2/M phase with %G2/M = 27.07, compared with %G2/M = 11.31 for the control MCF-7 (Table 5 and Figure 4).
These were performed using the approach described in the Supplementary Data, page 44 [46]. […]
thoroughly, and then centrifuge at 4°C to collect contents to the bottom of the tube. Chill on ice before using. Centrifuge again briefly at 4°C if needed. Preparation of a reaction cocktail is crucial in quantitative PCR applications to reduce pipetting errors and maximize assay precision and accuracy. Assemble the reaction cocktail with all required components except sample template (total RNA) and dispense equal aliquots into each reaction tube. Add target sample to each reaction as the final step. Addition of sample as 5–10 μl volumes will improve assay precision. Replicate samples should be assembled as a master mix with a single addition of sample template.
Cell cycle analysis and apoptosis
Transfer the previously prepared cells from 4 °C to the bench-top and equilibrate to room temperature. Gently re-suspend cells by inverting the tube or by gentleup and down pipetting.
There may be visible thin salt crystals in the tube but this will not affect the sedimentation of the cells in the next step. Pellet the cells at 500 x g for 5 minutes. Carefully aspirate the supernatant without disrupting the pellet. It is better to incompletely remove the supernatant than to accidently aspirate part of the pellet and lose cells. Wash the cells by gently resuspending in 1 mL 1X PBS.
Again, pellet the cells at 500 x g for 5 minutes and carefully remove the supernatant. Gently resuspend the cell pellet in 200 μL 1X Propidium Iodide + RNase Staining Solution. Then ensure that the cells are fully resuspended. Incubate at 37 °C in the dark for 20 – 30 minutes. Place tubes on ice (still in the dark) and prepare for flow cytometry analysis. Gently resuspend cells that settled during the incubation by pipetting up and down. If desired, pass cells through an appropriate filter (not provided) to remove cell aggregates. […] Collect Propidium iodide fluorescence in FL2. […]

CCCCN1C(=O)C(=NNC(=O)c2c(C)nc3sccn23)c2ccccc21 [Compound 6i, N′-(1-Butyl-2-oxoindolin-3-ylidene)-6-methylimidazo[2,1-b]thiazole-5-carbohydrazide]
RT-PCR Fold Change Caspase-9 (Caspase-9): 4.947 fold
RT-PCR Fold Change Bcl-2 (Bcl-2): 0.359 fold
%G2/M (MCF-7; control 11.31): 27.07%
%S (MCF-7; control 23.96): 19.27%
%G0–G1 (MCF-7; control 64.73): 53.66%
